SMILES strings stand for the structures.

This assay addresses T1, Epithelial sodium channel subunit alpha (Mus musculus, UniProt Q61180).
T1 sequence (Q61180 whole entry): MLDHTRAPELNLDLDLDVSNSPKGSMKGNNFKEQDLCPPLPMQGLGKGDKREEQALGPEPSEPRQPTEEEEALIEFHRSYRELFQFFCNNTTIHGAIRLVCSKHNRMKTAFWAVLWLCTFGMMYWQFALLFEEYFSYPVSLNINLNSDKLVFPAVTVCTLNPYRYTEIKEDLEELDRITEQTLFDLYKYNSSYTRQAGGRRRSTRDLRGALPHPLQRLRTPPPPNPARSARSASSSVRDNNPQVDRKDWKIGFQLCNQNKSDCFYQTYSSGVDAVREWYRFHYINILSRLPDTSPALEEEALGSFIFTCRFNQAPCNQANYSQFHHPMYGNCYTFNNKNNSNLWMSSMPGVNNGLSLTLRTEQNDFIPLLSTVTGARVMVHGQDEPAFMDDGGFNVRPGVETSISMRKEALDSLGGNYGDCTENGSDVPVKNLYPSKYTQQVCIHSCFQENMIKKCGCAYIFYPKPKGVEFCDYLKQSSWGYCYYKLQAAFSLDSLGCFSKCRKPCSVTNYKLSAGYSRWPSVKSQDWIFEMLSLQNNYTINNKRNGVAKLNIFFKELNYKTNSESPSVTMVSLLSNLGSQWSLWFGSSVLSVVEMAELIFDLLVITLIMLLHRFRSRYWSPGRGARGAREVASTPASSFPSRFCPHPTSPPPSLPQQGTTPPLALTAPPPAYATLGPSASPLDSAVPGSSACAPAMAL
Description: Inhibition of ENaC in mouse M1 assessed as effect on trans epithelial electrical resistance by measuring short circuit currents by voltage-clamp based Ussing chamber assay.

For orientation: IC50 means the concentration that inhibits the measured activity by half. As for `COc1ccc(CCC[N@@+]2(C)CCC[C@H](NC(=O)c3nc(Cl)c(N)nc3N)C2)cc1`, the half-maximal inhibitory concentration (IC50) was 70 nM. As for `COc1ccc(CCC[N+]2(CCCc3ccc(C(=O)NCCCN(C)C)cc3)CCCC(NC(=O)c3nc(Cl)c(N)nc3N)C2)cc1` (stereo unspecified), the figure is 20 nM; as for `COc1ccc(CCC[N+]2(CCCc3ccccc3)CCCC(NC(=O)c3nc(Cl)c(N)nc3N)C2)cc1` (stereo unspecified), 6 nM; as for `Nc1nc(N)c(C(=O)N[C@H]2CCC[N+](CCCc3ccc(OCC(=O)NCCn4ccnc4)cc3)(CCCc3ccc(OCC(=O)NCCn4ccnc4)cc3)C2)nc1Cl`, 9 nM. The value for `Nc1nc(N)c(C(=O)N[C@H]2CCC[N+](CCCc3ccc(OCC(=O)NCCCO)cc3)(CCCc3ccc(OCC(=O)NCCCO)cc3)C2)nc1Cl` was 13 nM; that for `Nc1nc(N)c(C(=O)N[C@H]2CCC[N+](CCCc3ccc(OCC(=O)NCCc4ccccn4)cc3)(CCCc3ccc(OCC(=O)NCCc4ccccn4)cc3)C2)nc1Cl` was 6 nM.

These data come from ChEMBL document CHEMBL3608293, “Novel Pyrazine Amide Compounds” (ACS Med Chem Lett, 2015).
